From ChEMBL document CHEMBL1146078, “Discovery and preclinical studies of (R)-1-(4-(4-fluoro-2-methyl-1H-indol-5-yloxy)-5- methylpyrrolo[2,1-f][1,2,4]triazin-6-yloxy)propan- 2-ol (BMS-540215), an in vivo active potent VEGFR-2 inhibitor” (J Med Chem, 2006)

How the values were obtained:
[1] = AUC in mice at 50 mg/kg after 4 hrs; type: ADME, organism-based; set-up: time < 4 hr, dose 50 mg/kg; conditions: mouse, plasma
[2] = Cmax in mice at 50 mg/kg after 4 hrs; type: ADME, organism-based; set-up: dose 50 mg/kg; conditions: mouse, in vivo
Cytochrome P450 3A4 = Cytochrome P450 3A4 (Homo sapiens, UniProt P08684); experiment: Inhibitory activity against CYP3A4
hERG = hERG (Homo sapiens, UniProt Q12809); experiment: Inhibitory activity against hERG by patch-clamp assay at 1 uM; type: functional
[3] = molecular target: Voltage-gated inwardly rectifying potassium channel KCNH2 (Homo sapiens, UniProt Q12809); experiment: Inhibitory activity against hERG by patch-clamp assay; type: functional
[4] = molecular target: Vascular endothelial growth factor receptor 2 (Mus musculus, UniProt P35918); experiment: Inhibitory activity against Flk1
H3396 [5] = experiment: Antitumor activity against H3396 cell xenografted in athymic mice at 60 mg/kg; type: functional, Homo sapiens
[6] = AUC in BALB/c mouse at 10 mg/kg, iv after 24 hrs; type: ADME, organism-based; set-up: time < 24 hr, dose 10 mg/kg, route intravenous; conditions: plasma
[7] = Half life in BALB/c mouse at 10 mg/kg, iv after 24 hrs; type: ADME, organism-based; set-up: dose 10 mg/kg, route intravenous; conditions: in vivo
[8] = Mean residence time in BALB/c mouse at 10 mg/kg, iv after 24 hrs; type: ADME, organism-based; set-up: dose 10 mg/kg, route intravenous; conditions: in vivo
[9] = Systemic clearance in BALB/c mouse at 10 mg/kg, iv after 24 hrs; type: ADME, organism-based; set-up: dose 10 mg/kg, route intravenous; conditions: in vivo
[10] = Volume of distribution in BALB/c mouse at 10 mg/kg, iv after 24 hrs; type: ADME, organism-based; set-up: dose 10 mg/kg, route intravenous; conditions: in vivo, read-out: Vss
[11] = AUC in BALB/c mouse at 60 mg/kg, po after 24 hrs; type: ADME, organism-based; set-up: time < 24 hr, dose 60 mg/kg, route oral; conditions: plasma
[12] = Half life in BALB/c mouse at 60 mg/kg, po after 24 hrs; type: ADME, organism-based; set-up: dose 60 mg/kg, route oral; conditions: in vivo
[13] = Oral bioavailability in BALB/c mouse at 60 mg/kg, po after 24 hrs; type: ADME, organism-based; conditions: in vivo
H3396 [14] = experiment: Antitumor activity against H3396 cell xenografted in athymic mice at 90 mg/kg; type: functional, Homo sapiens
[15] = Cmax in rat at 25 mg/kg as solution after 24 hrs; type: ADME, organism-based; set-up: dose 25 mg/kg; conditions: in vivo
[16] = Cmax in rat at 25 mg/kg as micronized suspension after 24 hrs; type: ADME, organism-based; set-up: dose 25 mg/kg; conditions: in vivo
[17] = Cmax in rat at 100 mg/kg as micronized suspension after 24 hrs; type: ADME, organism-based; set-up: dose 100 mg/kg; conditions: in vivo
[18] = Cmax in rat at 200 mg/kg as micronized suspension after 24 hrs; type: ADME, organism-based; set-up: dose 200 mg/kg; conditions: in vivo
[19] = AUC in rat at 25 mg/kg as solution after 24 hrs; type: ADME, organism-based; set-up: time < 24 hr, dose 25 mg/kg; conditions: plasma
[20] = AUC in rat at 25 mg/kg as micronized suspension after 24 hrs; type: ADME, organism-based; set-up: time < 24 hr, dose 25 mg/kg; conditions: plasma
[21] = AUC in rat at 100 mg/kg as micronized suspension after 24 hrs; type: ADME, organism-based; set-up: time < 24 hr, dose 100 mg/kg; conditions: plasma
[22] = AUC in rat at 200 mg/kg as micronized suspension after 24 hrs; type: ADME, organism-based; set-up: time < 24 hr, dose 200 mg/kg; conditions: plasma
[23] = Tmax in male BALB/c mice; type: ADME, organism-based; conditions: mouse, in vivo

Chain of Cytochrome P450 3A4 (P08684 whole entry): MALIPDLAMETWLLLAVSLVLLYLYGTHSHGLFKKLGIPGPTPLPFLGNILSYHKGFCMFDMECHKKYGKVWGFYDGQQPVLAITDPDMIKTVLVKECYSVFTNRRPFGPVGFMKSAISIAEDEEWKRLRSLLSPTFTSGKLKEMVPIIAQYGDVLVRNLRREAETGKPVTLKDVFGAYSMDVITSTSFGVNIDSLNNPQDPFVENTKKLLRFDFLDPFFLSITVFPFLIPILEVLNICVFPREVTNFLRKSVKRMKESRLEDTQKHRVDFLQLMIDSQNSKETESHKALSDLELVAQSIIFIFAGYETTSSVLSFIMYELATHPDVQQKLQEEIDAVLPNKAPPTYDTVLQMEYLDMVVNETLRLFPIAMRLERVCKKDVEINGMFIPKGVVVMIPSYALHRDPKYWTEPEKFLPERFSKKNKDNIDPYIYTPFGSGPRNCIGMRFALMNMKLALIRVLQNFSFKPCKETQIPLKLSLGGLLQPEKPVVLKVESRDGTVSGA
Chain of hERG (Q12809 whole entry): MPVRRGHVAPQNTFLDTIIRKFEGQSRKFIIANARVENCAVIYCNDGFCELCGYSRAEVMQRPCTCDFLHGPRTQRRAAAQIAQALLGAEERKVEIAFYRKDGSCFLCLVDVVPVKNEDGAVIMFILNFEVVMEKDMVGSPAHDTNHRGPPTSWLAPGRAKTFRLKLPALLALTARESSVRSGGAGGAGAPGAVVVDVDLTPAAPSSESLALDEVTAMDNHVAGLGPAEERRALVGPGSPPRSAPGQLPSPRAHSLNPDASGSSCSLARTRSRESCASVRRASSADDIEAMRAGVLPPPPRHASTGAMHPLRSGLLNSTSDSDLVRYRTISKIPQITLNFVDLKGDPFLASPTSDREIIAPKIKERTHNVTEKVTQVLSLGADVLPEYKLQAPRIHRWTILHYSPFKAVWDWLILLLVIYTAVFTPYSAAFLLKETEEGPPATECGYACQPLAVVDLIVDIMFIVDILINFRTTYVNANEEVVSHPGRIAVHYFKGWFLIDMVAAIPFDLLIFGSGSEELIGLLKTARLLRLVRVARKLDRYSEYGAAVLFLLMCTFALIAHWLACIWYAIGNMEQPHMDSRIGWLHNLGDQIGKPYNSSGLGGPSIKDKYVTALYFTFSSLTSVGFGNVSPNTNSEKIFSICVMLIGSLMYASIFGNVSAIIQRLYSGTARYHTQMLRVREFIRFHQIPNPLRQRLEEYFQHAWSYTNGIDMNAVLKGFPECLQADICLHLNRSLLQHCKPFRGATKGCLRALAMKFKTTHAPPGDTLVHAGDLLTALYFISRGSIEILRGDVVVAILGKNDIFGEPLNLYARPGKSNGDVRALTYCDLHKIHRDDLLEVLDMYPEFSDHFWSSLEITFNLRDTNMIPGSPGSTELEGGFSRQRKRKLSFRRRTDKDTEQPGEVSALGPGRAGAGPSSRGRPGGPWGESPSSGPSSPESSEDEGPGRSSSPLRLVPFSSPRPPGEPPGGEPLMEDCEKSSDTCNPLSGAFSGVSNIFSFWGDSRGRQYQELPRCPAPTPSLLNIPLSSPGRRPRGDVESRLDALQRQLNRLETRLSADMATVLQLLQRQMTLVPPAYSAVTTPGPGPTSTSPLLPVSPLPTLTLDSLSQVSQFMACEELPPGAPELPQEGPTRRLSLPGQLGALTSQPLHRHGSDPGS
Chain of Voltage-gated inwardly rectifying potassium channel KCNH2 (Q12809 whole entry): as above
Chain of Vascular endothelial growth factor receptor 2 (P35918 whole entry): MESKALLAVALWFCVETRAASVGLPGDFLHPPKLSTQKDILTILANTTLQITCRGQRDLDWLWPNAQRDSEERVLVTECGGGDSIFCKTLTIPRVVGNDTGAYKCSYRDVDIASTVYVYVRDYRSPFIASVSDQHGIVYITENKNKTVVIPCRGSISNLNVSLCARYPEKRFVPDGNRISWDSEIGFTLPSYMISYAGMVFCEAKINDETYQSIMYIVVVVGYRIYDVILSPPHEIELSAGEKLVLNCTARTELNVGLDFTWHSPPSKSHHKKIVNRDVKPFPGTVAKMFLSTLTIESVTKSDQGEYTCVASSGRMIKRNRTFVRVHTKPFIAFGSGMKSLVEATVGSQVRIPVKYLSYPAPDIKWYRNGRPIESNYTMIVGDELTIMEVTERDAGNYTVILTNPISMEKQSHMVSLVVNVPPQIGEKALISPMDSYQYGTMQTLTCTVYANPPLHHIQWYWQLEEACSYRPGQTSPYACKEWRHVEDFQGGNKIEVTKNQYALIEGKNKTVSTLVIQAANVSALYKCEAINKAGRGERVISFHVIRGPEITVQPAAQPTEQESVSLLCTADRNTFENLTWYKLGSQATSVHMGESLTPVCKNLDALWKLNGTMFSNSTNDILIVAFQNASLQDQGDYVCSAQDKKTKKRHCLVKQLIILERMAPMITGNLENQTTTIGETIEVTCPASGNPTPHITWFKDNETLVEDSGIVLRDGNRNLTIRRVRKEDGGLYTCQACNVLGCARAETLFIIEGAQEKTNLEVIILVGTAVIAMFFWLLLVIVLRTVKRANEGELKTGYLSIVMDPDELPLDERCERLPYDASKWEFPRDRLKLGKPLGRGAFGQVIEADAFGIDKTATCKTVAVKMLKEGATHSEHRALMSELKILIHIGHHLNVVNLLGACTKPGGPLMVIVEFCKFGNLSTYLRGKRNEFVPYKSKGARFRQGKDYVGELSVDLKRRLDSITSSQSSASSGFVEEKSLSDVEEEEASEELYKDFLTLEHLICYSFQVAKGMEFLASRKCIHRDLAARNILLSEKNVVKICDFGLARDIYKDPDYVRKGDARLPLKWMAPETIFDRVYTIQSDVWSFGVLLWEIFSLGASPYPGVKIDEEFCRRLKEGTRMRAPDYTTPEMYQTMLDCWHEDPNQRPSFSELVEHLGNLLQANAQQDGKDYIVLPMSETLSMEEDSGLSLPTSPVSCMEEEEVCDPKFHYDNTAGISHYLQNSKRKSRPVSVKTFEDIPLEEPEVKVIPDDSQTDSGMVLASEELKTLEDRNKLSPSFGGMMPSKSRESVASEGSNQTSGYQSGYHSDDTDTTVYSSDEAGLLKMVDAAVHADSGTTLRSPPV

Work on `Cc1cc2c(F)c(Oc3ncnn4cc(OCCC5CCN(C)CC5)c(C)c34)ccc2[nH]1` yielded an AUC at 4 h [1] of 2.2 µM·h, a Cmax [2] of 0.7 µM and an IC50 (Cytochrome P450 3A4) of 0.7 µM.

In the case of `Cc1cc2c(F)c(Oc3ncnn4cc(OCCCN5CCCCC5)c(C)c34)ccc2[nH]1`, the AUC at 4 h [1] is reported as 14 µM·h, the Cmax [2] is reported as 4.2 µM and the IC50 (Cytochrome P450 3A4) is reported as 1 µM. For the same molecule, the inhibition at 1 µM (hERG) was 70%.

Molecule `Cc1cc2c(F)c(Oc3ncnn4cc(OC[C@H](C)O)c(C)c34)ccc2[nH]1` has an AUC at 4 h [1] of 146 µM·h and a Cmax [2] of 56 µM.

`Cc1cc2c(F)c(Oc3ncnn4cc(OCCCN5CCCC5)c(C)c34)ccc2[nH]1` gave an AUC at 4 h [1] of 20.5 µM·h, a Cmax [2] of 5.9 µM and an inhibition at 1 µM (hERG) of 66%.

For `Cc1cc2c(F)c(Oc3ncnn4cc(OCCN5CCC(O)C5)c(C)c34)ccc2[nH]1` (single isomer, unassigned), the AUC at 4 h [1] was 9.9 µM·h, the Cmax [2] was 3 µM and the inhibition at 1 µM (hERG) was 38%.

With `Cc1cc2c(F)c(Oc3ncnn4cc(OCCCS(C)(=O)=O)c(C)c34)ccc2[nH]1` the AUC at 4 h [1] was 185 µM·h, the Cmax [2] was 57 µM and the IC50 (Cytochrome P450 3A4) was 17 µM. It also gave an IC50 [3] of 20 µM.

`COC[C@@H](O)COc1cn2ncnc(Oc3ccc4[nH]c(C)cc4c3F)c2c1C` showed an AUC at 4 h [1] of 128 µM·h, a Cmax [2] of 41 µM and an IC50 (Cytochrome P450 3A4) of 1 µM. For the same molecule, the IC50 [3] was 18 µM.

Molecule `Cc1cc2c(F)c(Oc3ncnn4cc(OC[C@@H](C)O)c(C)c34)ccc2[nH]1` [BRIVANIB] has an AUC at 4 h [1] of 136 µM·h, a Cmax [2] of 41 µM and an IC50 [3] of 18 µM. For the same molecule, the IC50 [4] was 0.089 µM, the Ki [4] was 0.028 µM and the Activity (H3396 [5]) was 85%. The AUC at 24 h [6] was 49 µM·h, the half-life [7] was 2.7 h and the MRT [8] was 3.6 h. The clearance [9] was 9.3 mL/min/kg, the Vd [10] was 2 L/kg and the AUC at 24 h [11] was 224 µM·h. The half-life [12] was 3.6 h, the bioavailability [13] was 88% and the Activity (H3396 [14]) was 97%. It also gave a Cmax [15] of 6.4 µM, a Cmax [16] of 0.55 µM and a Cmax [17] of 2.05 µM. For the same molecule, the Cmax [18] was 1.71 µM, the AUC at 24 h [19] was 13.4 µM·h and the AUC at 24 h [20] was 3.35 µM·h. It also gave an AUC at 24 h [21] of 8.43 µM·h, an AUC at 24 h [22] of 7.61 µM·h and a Tmax [23] of 1 h.

In the case of `Cc1cc2c(F)c(Oc3ncnn4cc(OCCCNS(C)(=O)=O)c(C)c34)ccc2[nH]1`, the AUC at 4 h [1] is reported as 96 µM·h, the Cmax [2] is reported as 27 µM and the IC50 (Cytochrome P450 3A4) is reported as 1 µM.

`Cc1cc2c(F)c(Oc3ncnn4cc(O)c(C)c34)ccc2[nH]1` showed an AUC at 4 h [1] of 0.2 µM·h and a Cmax [2] of 0.2 µM.
